Measurements: patent US20240336604A1 (THE UNITED STATES OF AMERICA, AS REPRESENTED BY THE …, priority 2021, published 2024)
Several values for one entry are separate records, joined by “and”; a condition that tells them apart may be missing. Equal entries are not always repeated.

Tests used:
D3 DAR [1] = biological target: T1, D3 DAR (Homo sapiens, UniProt P35462); experiment: [3H]-methylspiperone radioligand binding assay; conditions: single high 40 μM concentration
Method: Compounds were tested for their ability to compete with the orthosteric radioligand [^3H]-methylspiperone for binding to the D3 DAR using HEK cells transiently transfected with the D3 DAR as described in the detailed protocol below presented in Table 5. Cells were cultured in Dulbecco's modified Eagle's Medium (Corning, catalogue no. 10-013) containing 10% FBS, 1,000 units/mL Penicillin, […] Streptomycin, 100 mM sodium pyruvate, 1 μg/mL Gentamicin, and […] G418. All cells were maintained at 37° C. in 5% CO2 and 90% humidity. For radioligand binding assays cells were removed mechanically using calcium-free Earle's balanced salt solution (EBSS). Intact cells were collected by centrifugation and then lysed with 5 mM Tris-HCl and 5 mM MgCl2 at pH 7.4. Homogenates were centrifuged at 30,000×g for 30 minutes. The membranes were re-suspended in EBSS (US Biological, catalogue no. E0249-05) pH 7.4 to a concentration of 16 μg/mL. For competition binding studies, membrane preparations were incubated for 90 minutes at room temperature with various concentrations of compound and a single concentration of [^3H]-methylspiperone (Perkin Elmer, NET856) in a reaction volume of […]. Non-specific binding was determined in the presence of 4 μM (+)-butaclamol (Sigma-Aldrich, catalogue no. D033). Bound ligand was separated from unbound by filtration through GF/C filters using a PerkinElmer cell harvester and quantified on a Top-count (PerkinElmer). Ki values were determined using Cheng-Prusoff equation from observed IC50 values and ligand Kd values from separate saturation experiments.

D3 DAR [2] = biological target: T1, D3 DAR; experiment: Go BRET activation assay, D3 DAR; format: cell-based; conditions: EC80 DA (30 nM); for Emax: 5 min, read-out: D3 Go BRET Imax
Method: Briefly, HEK293T cells transiently expressing either the D2 DAR or D3 DAR and GαoA-Rluc8, untagged-β1, and mVenus-γ2 were harvested with EBSS, plated in 96-well white plates at 20,000 cells/well in DPBS and incubated at RT for 45 min. […] BRET signal was determined by quantifying and calculating the ratio of the light emitted by mVenus (525 nm) over that emitted by RLuc8 (485 nm) using a PHERAstar FSX Microplate Reader (BMG Labtech).

D3 DAR [3] = biological target: T1, D3 DAR; experiment: DiscoverX D3 DAR β-arrestin recruitment assay; format: cell-based; design: host or cells: CHO; conditions: for Emax / D3 DAR Imax: Imax=maximum inhibition, EC80 DA (30 nM)
Excerpt: (§1) A D3 DAR β-arrestin cell line from DiscoverX (Fremont, CA) was used as described in the protocol below (Table 2). A CHO cell line engineered to overexpress the D3 DAR fused with a small 42-amino acid fragment of β-galactosidase called ProLink™ and a fusion protein consisting of β-arrestin and a larger N-terminal deletion mutant of β-galactosidase was used (DiscoverX catalogue number 93-0579C2). When the D3 DAR is activated by dopamine, it stimulates binding of β-arrestin to ProLink-tagged D3 DARs, and the two complementary parts of β-galactosidase form a functional enzyme. When substrate (PathHunter® Detection reagent, DiscoverX 93-0001) is added, β-galactosidase hydrolyzes it and generates a chemiluminescent signal.

D2 DAR = D2 DAR (Homo sapiens, UniProt P14416); experiment: DiscoverX D2 DAR β-arrestin recruitment assay; format: cell-based; design: host or cells: CHO; conditions: for antagonism of dopamine activation of the D2 DAR: DiscoverX β-arrestin assay, FIG. 2B; for D2 DAR Imax / IC50: EC80 concentration of DA (1 μM)
Excerpt: For a secondary-screen and selectivity assays, DAR PathHunter®-arrestin GPCR cell lines from DiscoverX (Fremont, CA) were used. In the D2 DAR PathHunter®-arrestin GPCR cell line, the D2 DAR is overexpressed and fused with a small 42-amino acid fragment of β-galactosidase called ProLink™ on a CHO cellular background expressing a fusion protein of β-arrestin and a larger N-terminal deletion mutant of β-galactosidase (“enzyme acceptor”). When the D2 DAR is activated by dopamine, it stimulates binding of β-arrestin to the ProLink-tagged DAR and the two complementary parts of β-galactosidase form a functional enzyme. When substrate (PathHunter™ Detection reagent) is added, β-galactosidase hydrolyzes it and generates a chemiluminescent signal.

D3 DAR [4] = biological target: T1, D3 DAR; experiment: Functional curve-shift assays using the DiscoverX β-arrestin recruitment assay; format: cell-based; design: host or cells: CHO; conditions: for IC50: agonist dopamine, read-out: Functional IC50 for decreasing the Emax of dopamine; for mode of antagonism in curve-shift assays: versus agonist (dopamine, pramipexole)
Excerpt: To further assess the mechanism of action of Cmp. […] 1 (FIGS. 4B and 4D). […] Average curves are shown (mean±SEM from at least 3 experiments each performed in triplicate). […] In contrast, increasing concentrations of Cmp.
1. FIG. 6A-C panels show concentration-response curves of dopamine in the absence or presence of increasing concentrations of compound. Cmp. […] 18 (FIG. 6A), Cmp. 5 (FIG. 6B), and Cmp. 17 (FIG. 6C), respectively. Average curves are shown (mean±SEM from at least 3 experiments, each performed in triplicate).
as §1

[5] = DiscoverX β-arrestin assay, FIG. 1A, 2A, read-out: IC50, inhibition of dopamine-stimulated β-arrestin recruitment to the D3 DAR
[6] = EC80 concentration of DA (30 nM), read-out: D3 DAR IC50

T1 sequence (P35462 whole entry): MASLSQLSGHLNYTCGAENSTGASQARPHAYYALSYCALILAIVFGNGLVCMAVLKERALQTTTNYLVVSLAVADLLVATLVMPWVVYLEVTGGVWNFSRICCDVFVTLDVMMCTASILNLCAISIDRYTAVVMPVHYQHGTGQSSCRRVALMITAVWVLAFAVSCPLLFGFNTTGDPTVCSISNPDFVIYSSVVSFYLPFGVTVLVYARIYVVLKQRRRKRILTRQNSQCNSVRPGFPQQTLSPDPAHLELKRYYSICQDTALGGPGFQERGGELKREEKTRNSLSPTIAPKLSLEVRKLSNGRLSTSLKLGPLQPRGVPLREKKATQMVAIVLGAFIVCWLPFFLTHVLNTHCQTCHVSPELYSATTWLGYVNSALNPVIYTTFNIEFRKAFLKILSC
Sequence of D2 DAR (P14416 whole entry, the tested form may be a part): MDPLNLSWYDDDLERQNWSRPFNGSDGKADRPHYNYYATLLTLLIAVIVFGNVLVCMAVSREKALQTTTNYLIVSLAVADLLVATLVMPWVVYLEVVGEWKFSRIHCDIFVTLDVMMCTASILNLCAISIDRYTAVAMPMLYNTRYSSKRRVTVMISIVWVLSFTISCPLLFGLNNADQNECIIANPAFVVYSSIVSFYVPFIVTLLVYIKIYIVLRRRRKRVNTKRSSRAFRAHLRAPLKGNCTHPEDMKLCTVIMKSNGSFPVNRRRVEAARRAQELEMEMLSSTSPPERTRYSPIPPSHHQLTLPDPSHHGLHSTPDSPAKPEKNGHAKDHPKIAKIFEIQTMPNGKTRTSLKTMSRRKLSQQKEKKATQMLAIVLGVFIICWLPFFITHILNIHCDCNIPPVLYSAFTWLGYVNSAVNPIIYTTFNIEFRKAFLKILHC

Compound | inhibition of [3H]-methylspiperone binding to the D3 DAR (D3 DAR [1]) | IC50 (D3 DAR [2]) [µM] | IC50 (D3 DAR [3]; [5]) | IC50 (D3 DAR [3]; [6]) [µM] | Emax (D3 DAR [3]) [%] | antagonism of dopamine activation of the D2 DAR (D2 DAR) | D2 DAR Imax (D2 DAR) | IC50 (D2 DAR) [µM] | Emax (D3 DAR [2]) [%] | IC50 (D3 DAR [4]) [µM] | mode of antagonism in curve-shift assays (D3 DAR [4]) | D3 DAR Imax (D3 DAR [3]) | D3 Go BRET Imax (D3 DAR [2])
CCOC(=O)C1=NOC2(C1)C(=O)Nc1ccc(OC(F)(F)F)cc12 (racemic) [Cmp. 25, Ethyl 2-oxo-5-(trifluoromethoxy)-4′H-spiro[indoline-3,5′-isoxazole]-3′-carboxylate] | neither compound exhibited measurable ability to inhibit the binding | > 50 | ~13 µM and ~15 µM | 10 to 50 | 80 to 100 | lacks ability to antagonize dopamine activation | NA (“NA” indicates not active) | > 100 |  |  |  |  | 
Cc1[nH]c(C)c(S(=O)(=O)Nc2ccc(C(F)(F)F)c(Cl)c2)c1C(=O)N1CCCC1 [Cmp. 5] |  | 1 to 10 |  | < 10 | 80 to 100 |  | NA (“NA” indicates not active) | > 100 | 80 to 100 | 2.3 | noncompetitive antagonism |  | 
Cc1[nH]c(C)c(S(=O)(=O)Nc2ccc(C(F)(F)F)c(Br)c2)c1C(=O)N1CCCC1 [Cmp. 18] |  | > 50 |  | < 10 | 80 to 100 |  | NA (“NA” indicates not active) | > 100 | 80 to 100 | 3.6 | noncompetitive antagonism |  | 
Cc1cccc(CNC(=O)c2sc(=O)n(Cc3c(C)cccc3C)c2C)c1 [Cmp. 26] | neither compound exhibited measurable ability to inhibit the binding |  | ~30 µM | 10 to 50 | 80 to 100 | lacks ability to antagonize dopamine activation | NA (“NA” indicates not active) | > 100 |  |  |  |  | 
Cc1[nH]c(C)c(S(=O)(=O)Nc2ccc(F)cc2)c1C(=O)N1CCCC1 [compound 32] |  | 1 to 10 |  | > 100 |  |  | NA (“NA” indicates not active) | > 100 | > 100 |  |  | Curve Incomplete | 
CCNC(=O)c1c(C)[nH]c(C)c1S(=O)(=O)Nc1ccc(C(F)(F)F)c(Cl)c1 [compound 33, 4-(N-(3-chloro-4-(trifluoromethyl)phenyl)sulfamoyl)-N-ethyl-2,5-dimethyl-1H-pyrrole-3-carboxamide] |  | 10 to 50 |  | < 10 | 80 to 100 |  | NA (“NA” indicates not active) | > 100 | > 100 |  |  |  | 
Cc1[nH]c(C)c(S(=O)(=O)Nc2cc(Cl)c(C(F)(F)F)c(Cl)c2)c1C(=O)N1CCC(F)(F)C1 [compound 35, N-(3,5-dichloro-4-(trifluoromethyl)phenyl)-4-(3,3-difluoropyrrolidine-1-carbonyl)-2,5-dimethyl-1H-pyrrole-3-sulfonamide] |  | < 1 |  | < 10 | 80 to 100 |  | NA (“NA” indicates not active) | > 100 | 80 to 100 |  |  |  | 
Cc1[nH]c(C)c(S(=O)(=O)Nc2ccc(C3CC3)c(Cl)c2)c1C(=O)N1CCC(F)(F)C1 [compound 36, N-(3-chloro-4-cyclopropylphenyl)-4-(3,3-difluoropyrrolidine-1-carbonyl)-2,5-dimethyl-1H-pyrrole-3-sulfonamide] |  | 1 to 10 |  | 10 to 50 | 80 to 100 |  | NA (“NA” indicates not active) | > 100 | 80 to 100 |  |  |  | 
O=C(c1c(S(=O)(=O)Nc2ccc(C(F)(F)F)c(Cl)c2)c[nH]c1C(F)(F)F)N1CCCC1 [compound 37] |  | > 50 |  | 10 to 50 | 80 to 100 |  | NA (“NA” indicates not active) | > 100 |  |  |  |  | 
Cc1ccc(NS(=O)(=O)c2c(C)[nH]c(C(F)(F)F)c2C(=O)N2CCCC2)cc1Cl [compound 38] |  | 1 to 10 |  | < 10 | 80 to 100 |  | NA (“NA” indicates not active) | > 100 | > 100 |  |  |  | 
CCc1[nH]c(CC)c(S(=O)(=O)Nc2ccc(C(F)(F)F)c(Cl)c2)c1C(=O)N1CCCC1 [compound 39, N-(3-chloro-4-(trifluoromethyl)phenyl)-2,5-diethyl-4-(pyrrolidine-1-carbonyl)-1H-pyrrole-3-sulfonamide] |  | 1 to 10 |  | 10 to 50 | 80 to 100 |  | NA (“NA” indicates not active) | > 100 | > 100 |  |  |  | 
Cc1[nH]c(C)c(S(=O)(=O)Nc2cc(Cl)cc(C(F)(F)F)c2)c1C(=O)N1CCC(F)(F)C1 [compound 40, N-(3-chloro-5-(trifluoromethyl)phenyl)-4-(3,3-difluoropyrrolidine-1-carbonyl)-2,5-dimethyl-1H-pyrrole-3-sulfonamide] |  | 10 to 50 |  | 10 to 50 | 80 to 100 |  | NA (“NA” indicates not active) | > 100 | > 100 |  |  |  | 
Cc1[nH]c(C)c(S(=O)(=O)Nc2ccc(Cl)cc2C(F)(F)F)c1C(=O)N1CCC(F)(F)C1 [compound 42] |  | 10 to 50 |  | 10 to 50 | 80 to 100 |  | NA (“NA” indicates not active) | > 100 | > 100 |  |  |  | 
CCOC(=O)C1=NOC2(C1)C(=O)Nc1ccc(OC(F)(F)F)cc12 (stereo not shown) [compound 44] |  | > 50 |  | < 10 | 80 to 100 |  | NA (“NA” indicates not active) | > 100 |  |  |  |  | NA (NA means not active)
CCN1CCCC1CNC(=O)c1cc(S(N)(=O)=O)ccc1OC (stereo not shown) [sulpiride, reference compound] |  |  |  |  |  |  |  |  |  |  | behaves in a competitive manner |  | 
N-(3-choro-4-methylphenyl)-2,5-dimethyl-4-(pyrrolidine-1-carbonyl)-1H-pyrrole-3-sulfonamide [compound 31] |  | 10 to 50 |  | > 100 |  |  | Curve Incomplete | > 100 |  |  |  | Curve Incomplete | ++ (a “++” indicates a detectable Imax of more than 100%, indicative of possible inverse agonist activity)
